Results on ten compounds are retold here after ChEMBL document CHEMBL1151041, “Synthesis and antitumor evaluation of 2-oxycarbonylpaclitaxels (paclitaxel-2-carbonates)” (Bioorg Med Chem Lett, 1994).

In experiment [1] the test system is HCT-116. The experiment is described as follows: Compound was tested for its cytotoxicity against human colon cancer cell line HCT116. The class given is functional, cell-based.
The species entered for experiment [2] is Rattus norvegicus. The experiment can be described thus: Tested for tubulin polymerization assay in rat; Inactive. The class given is functional, organism-based.
The test system of experiment [3] is M109. The experiment can be described thus: In vivo antitumor activity expressed as percent median survival time of treated mice to saline treated mice against murine lung carcinoma M109 at 90 mg/kg (ip) on days 5 and 8. It is filed as functional, Mus musculus.
For experiment [4], the system named is M109. The experiment is described as follows: In vivo antitumor activity expressed as percent median survival time of treated mice to saline treated mice against murine lung carcinoma M109 at 90 mg/kg (ip) on days 1, 5 and 9. It is filed as functional, Mus musculus.
For experiment [5], the system named is M109. The experiment can be described thus: In vivo antitumor activity expressed as percent median survival time of treated mice to saline treated mice against murine lung carcinoma M109 at 75 mg/kg (ip) on days 5 and 8 reference to 3h. It is filed as functional, Mus musculus.
For experiment [6], the system named is M109. The experiment can be described thus: In vivo antitumor activity expressed as percent median survival time of treated mice to saline treated control against murine lung carcinoma M109 at 50 mg/kg (ip) on days 5 and 8 reference to 3c. It is filed as functional, Mus musculus.
In experiment [7] the test system is M109. The experiment can be described thus: In vivo antitumor activity expressed as percent median survival time of treated mice to saline treated mice against murine lung carcinoma M109 at 75 mg/kg (ip) on days 5 and 8 reference to 3g. It is filed as functional, Mus musculus.
Experiment [8] concerns M109. The experiment is described as follows: In vivo antitumor activity expressed as percent median survival time of treated mice to saline treated mice against murine lung carcinoma M109 at 75 mg/kg (ip) on days 5 and 8 reference to 3i. It is filed as functional, Mus musculus.
The subject of experiment [9] is M109. The experiment can be described thus: In vivo antitumor activity expressed as percent median survival time of treated mice to saline treated mice against murine lung carcinoma M109 at 30 mg/kg (ip) on days 1, 5 and 9 reference to 3f. It is filed as functional, Mus musculus.
For experiment [10], the system named is M109. The experiment can be described thus: In vivo antitumor activity expressed as percent median survival time of treated mice to saline treated mice against murine lung carcinoma M109 at 30 mg/kg (ip) on days 1, 5 and 9 reference to 3d. It is filed as functional, Mus musculus.
Experiment [11] concerns M109. The experiment can be described thus: In vivo antitumor activity expressed as percent median survival time of treated mice to saline treated mice against murine lung carcinoma M109 at 30 mg/kg (ip) on days 1, 5 and 9 reference to 3b. The class given is functional, Mus musculus.
The subject of experiment [12] is M109. The experiment is described as follows: In vivo antitumor activity expressed as percent median survival time of treated mice to saline treated mice against murine lung carcinoma M109 at 75 mg/kg (ip) on days 5 and 8 reference to 3a. It is filed as functional, Mus musculus.
For experiment [13], the system named is M109. The experiment is described as follows: In vivo antitumor activity expressed as percent median survival time of treated mice to saline treated mice against murine lung carcinoma M109 at 50 mg/kg (ip) on days 1, 5 and 9 reference to 3e. The class given is functional, Mus musculus.
The species entered for experiment [14] is Rattus norvegicus. The experiment can be described thus: Tested to promote microtubule assembly by tubulin polymerization assay in rat plasma at 37 degree C for 18 hr; Active. The class given is functional, organism-based.

One may read the IC50 as the concentration that inhibits the measured activity by half. Lower therefore signals greater potency in that assay. As usually defined, the T/C is the result in the treated group divided by that in the control group, in per cent.

The source made the active and inactive calls. No cut-off for these calls is given here. Some results are limits rather than exact numbers.

For the compound `CC(=O)O[C@H]1C(=O)[C@@]2(C)C([C@H](OC(=O)c3ccccc3)[C@]3(O)C[C@H](OC(=O)[C@H](OC(=O)Oc4cccc(N(C)C)c4)[C@@H](NC(=O)c4ccccc4)c4ccccc4)C(C)=C1C3(C)C)[C@]1(OC(C)=O)COC1C[C@@H]2O` (stereo partly specified), the IC50 in experiment [1] worked out at 0.016 µM. Moreover, the outcome in experiment [2] was inactive. This compound displayed a T/C in [3] of 226%.
In the case of `C=COC(=O)O[C@@H](C(=O)O[C@H]1C[C@@]2(O)[C@@H](OC(=O)c3ccccc3)C3[C@]4(OC(C)=O)COC4C[C@H](O)[C@@]3(C)C(=O)[C@H](OC(C)=O)C(=C1C)C2(C)C)[C@@H](NC(=O)c1ccccc1)c1ccccc1` (stereo partly specified), in [4], the T/C is recorded as more than 475%. Besides, the IC50 in [1] worked out at 0.04 µM. Further, in experiment [2], the outcome was inactive.
On to `CC(=O)O[C@H]1C(=O)[C@@]2(C)[C@H]([C@H](OC(=O)c3ccccc3)[C@]3(O)C[C@H](OC(=O)[C@H](O)[C@@H](NC(=O)c4ccccc4)c4ccccc4)C(C)=C1C3(C)C)[C@]1(OC(C)=O)CO[C@@H]1C[C@@H]2O` [PACLITAXEL], for which the T/C in experiment [5] amounted to 262%; in experiment [6] it was 197%; in experiment [7], 262%; in [8], 262%; in experiment [9], 275%; in [10], 275%. Moreover, the T/C turned out to be 275% in [11], 276% in experiment [12] and 270% in experiment [13].
In turn, `CC(=O)O[C@H]1C(=O)[C@@]2(C)C([C@H](OC(=O)c3ccccc3)[C@]3(O)C[C@H](OC(=O)[C@H](OC(=O)OC(C)C)[C@@H](NC(=O)c4ccccc4)c4ccccc4)C(C)=C1C3(C)C)[C@]1(OC(C)=O)COC1C[C@@H]2O` (stereo partly specified) returned an IC50 in experiment [1] of more than 0.08 µM. Also, the result in experiment [2] was inactive. This compound yielded a T/C in experiment [3] of 247%.
On to `COC(=O)O[C@@H](C(=O)O[C@H]1C[C@@]2(O)[C@@H](OC(=O)c3ccccc3)C3[C@]4(OC(C)=O)COC4C[C@H](O)[C@@]3(C)C(=O)[C@H](OC(C)=O)C(=C1C)C2(C)C)[C@@H](NC(=O)c1ccccc1)c1ccccc1` (stereo partly specified), for which the IC50 in experiment [1] is more than 0.08 µM. Also, in experiment [14], the result was Active. Further, the T/C in experiment [3] worked out at 162%.
In [4], `CC(=O)O[C@H]1C(=O)[C@@]2(C)C([C@H](OC(=O)c3ccccc3)[C@]3(O)C[C@H](OC(=O)[C@H](OC(=O)OCCl)[C@@H](NC(=O)c4ccccc4)c4ccccc4)C(C)=C1C3(C)C)[C@]1(OC(C)=O)COC1C[C@@H]2O` (stereo partly specified) had a T/C of 275%. For the same compound, in experiment [1], the IC50 came out at 0.03 µM. In experiment [2], the result was inactive.
In turn, `CCOC(=O)O[C@@H](C(=O)O[C@H]1C[C@@]2(O)[C@@H](OC(=O)c3ccccc3)C3[C@]4(OC(C)=O)COC4C[C@H](O)[C@@]3(C)C(=O)[C@H](OC(C)=O)C(=C1C)C2(C)C)[C@@H](NC(=O)c1ccccc1)c1ccccc1` (stereo partly specified) had a T/C in experiment [4] of more than 475%. This compound yielded a half-inhibitory concentration (IC50) in [1] of 0.03 µM. In experiment [14], the result was Active.
`CC(=O)O[C@H]1C(=O)[C@@]2(C)C([C@H](OC(=O)c3ccccc3)[C@]3(O)C[C@H](OC(=O)[C@H](OC(=O)OCc4ccccc4)[C@@H](NC(=O)c4ccccc4)c4ccccc4)C(C)=C1C3(C)C)[C@]1(OC(C)=O)COC1C[C@@H]2O` (stereo partly specified) gave a T/C in experiment [4] of 310%. This compound also showed an IC50 in experiment [1] of 0.03 µM. The result in experiment [2] was inactive.
The compound `CC(=O)O[C@H]1C(=O)[C@@]2(C)C([C@H](OC(=O)c3ccccc3)[C@]3(O)C[C@H](OC(=O)[C@H](OC(=O)Oc4ccccc4)[C@@H](NC(=O)c4ccccc4)c4ccccc4)C(C)=C1C3(C)C)[C@]1(OC(C)=O)COC1C[C@@H]2O` (stereo partly specified) gave an IC50 in [1] of 0.007 µM. Also, the result in experiment [2] was inactive. In [3], this compound returned a T/C of 203%.
The like results for `C=C(C)OC(=O)O[C@@H](C(=O)O[C@H]1C[C@@]2(O)[C@@H](OC(=O)c3ccccc3)C3[C@]4(OC(C)=O)COC4C[C@H](O)[C@@]3(C)C(=O)[C@H](OC(C)=O)C(=C1C)C2(C)C)[C@@H](NC(=O)c1ccccc1)c1ccccc1` (stereo partly specified) were, in that order, less than 0.015 µM, “inactive” and 235%.
